Assay results: PubChem BioAssay (NCI)
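1) Cells in 96-well plates. 2) Compound, 48 h, 5 concentrations. 3) Linear interpolation between surrounding doses. 4) Unreached endpoint = highest concentration. TGI: total growth inhibition.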

Key:
Experiment in all cases: NCI anticancer screen, dose series, 48 h
SK-MEL-28 melanoma = test system: SK-MEL-28 melanoma
DLD-1 colon = test system: DLD-1 colon
DMS 114 small cell lung = test system: DMS 114 small cell lung
DMS 273 small cell lung = test system: DMS 273 small cell lung
HOP-18 NSCLC = test system: HOP-18 NSCLC
KM20L2 colon = test system: KM20L2 colon
LXFL 529 NSCLC = test system: LXFL 529 NSCLC
M19-MEL melanoma = test system: M19-MEL melanoma
SNB-78 CNS = test system: SNB-78 CNS
XF 498 CNS = test system: XF 498 CNS

Structure (SMILES)	TGI (SK-MEL-28 melanoma) [µM]	also measured
Nc1cc(CO)cc(Nc2c3ccccc3nc3occc23)c1	72.4	–
Cc1ccc2c3c1O[C@H]1c4nc5ccccc5cc4C[C@@]4(O)[C@@H](C2)N(CC2CC2)CC[C@]314	> 100	–
Clc1ccc(OCc2nnc(CCCCCCCCc3nnc(COc4ccc(Cl)cc4Cl)o3)o2)c(Cl)c1	> 100	–
CCOC(=O)/C=C(/C(=O)OCC)n1cc(C)c(=O)n(Cc2cnnn2CCCCOC(C)=O)c1=O	> 100	–
COC(=O)/C=C1/OC(c2ccccc2)=C(Cl)C1=O	42.5	–
CC(=O)C(=C(I)I)c1ccccc1	38.7	–
O=C1CSC2(CCN(CCCN3c4ccccc4Sc4ccc(Cl)cc43)CC2)N1	28.9	–
Cn1c(N/N=C/c2ccc(Cl)cc2)nc(-c2ccc(Cl)cc2)c(C#N)c1=O	> 100	–
C=C(Br)CN(C#N)CC(=C)Br	> 100	–
O=C(CCCC(=O)N1CC(CCl)c2ccc([N+](=O)[O-])cc21)N1CC(CCl)c2ccc([N+](=O)[O-])cc21 (centres undefined)	> 100	–
COc1cccc(/C=C/C2=NN(c3cccc(S(=O)(=O)O)c3)C3(C2)SCC(=O)N3c2nc3ccccc3s2)c1 (centres undefined)	> 100	–
CN(C)c1ccc(C(c2ccc(N(C)C)cc2)c2ccc([N+](=O)[O-])cc2)cc1	> 100	–
NS(=O)(=O)c1ccc(/C=C/c2cccc(O)c2)cc1	> 100	–
CN(C)Cc1cc(C(=O)/C=C/c2ccc(/C=C/C(=O)c3cc(CN(C)C)c(O)c(CN(C)C)c3)cc2)cc(CN(C)C)c1O	> 100	–
NC1CCC(c2cc3ccccc3s2)(N2CCCCC2)CC1 (centres undefined)	3.11	–
CC1=C(C#N)S(=O)(=O)c2c(oc(C)c2C)N1	> 100	–
CN(C)c1ccc(/C=C2\N=C(c3ccccc3)N(c3nc4c(Cl)cc(Cl)cc4s3)C2=O)cc1	> 100	–
COc1ccc2c(c1)CC[C@@H]1[C@@H]2CC[C@]2(C)/C(=N/OCCN3CCCCC3)CC[C@@H]12	5	–
CC(=O)O[C@H]1/C(=C/c2ccc(N(C)C)cc2)C[C@H]2[C@@H]3CC=C4C[C@@H](N5CCCC5)CC[C@]4(C)[C@H]3CC[C@]12C	> 100	–
COc1ccc(CNc2nc3ccccc3nc2-c2cccs2)cc1	> 100	–
O=S1(=O)c2ccccc2N2CCCc3cc(Cl)cc1c32	> 100	–
O=C1CC(O)c2c(Cl)sc(Cl)c21 (centres undefined)	13.5	–
Cc1nn(-c2ccccc2)c(C)c1/C=N/NC(=O)c1sc(=S)n(-c2ccccc2)c1N	48	–

Structure (SMILES)	TGI (SK-MEL-28 melanoma) [µM]	also measured
CC1(C)C2CCC1C(=O)C(C=O)C2 (centres undefined)	> 100	–
CCOC(=O)/C(=C\c1ccc(CO)o1)P(=O)(OCC)OCC	82.3	–
CC(=O)Oc1ccc2c(c1)CC[C@@H]1C2[C@@H](O[N+](=O)[O-])C[C@@]2(C)C1CC[C@@H]2O (some centres undefined)	> 100	–
OC1CN=C2c3ccccc3C(O)(c3ccc(Cl)cc3)N2C1 (centres undefined)	> 100	–
O=C(CSC1=NCCN1)c1ccccc1	> 100	–
CCCCCC(C)C[C@H]1CO[C@H](c2ccc[nH]2)N[C@H]1C(=O)OC (some centres undefined)	> 100	–
O=C(c1ccco1)N(C(=S)N1CCN(c2ccccc2)CC1)c1ccccc1	> 100	TGI (DLD-1 colon): > 100 µM; TGI (DMS 114 small cell lung): > 100 µM; TGI (DMS 273 small cell lung): > 100 µM; TGI (HOP-18 NSCLC): > 100 µM; TGI (KM20L2 colon): > 100 µM; TGI (LXFL 529 NSCLC): > 100 µM; TGI (M19-MEL melanoma): > 100 µM; TGI (SNB-78 CNS): > 100 µM
COc1ccc(CN=CN/C(C#N)=C(\N)C#N)cc1OC	> 100	–
O=[N+]([O-])C(=C(NCc1ccccc1)NCc1ccccc1)C(Cl)=C(Cl)Cl	> 100	–
Cn1c2ccccc2n2c3nc4ccccc4nc3c(C#N)c12	> 100	TGI (DLD-1 colon): > 100 µM; TGI (DMS 114 small cell lung): > 100 µM; TGI (DMS 273 small cell lung): > 100 µM; TGI (HOP-18 NSCLC): > 100 µM; TGI (LXFL 529 NSCLC): > 100 µM; TGI (M19-MEL melanoma): > 100 µM; TGI (XF 498 CNS): > 100 µM
O=C1CC(c2cccc(Cl)c2)n2cccc21 (centres undefined)	> 100	–
Fc1cccc2nc(-c3ccccc3)cc(OCc3ccccc3)c12	> 100	–
CC(Nc1cc(Cl)cc(Cl)c1)c1ccncc1 (centres undefined)	97.8	–
COc1cc(C(C#N)NNC(=O)c2ccccc2O)ccc1O (centres undefined)	> 100	TGI (DLD-1 colon): > 100 µM; TGI (HOP-18 NSCLC): 97.9 µM; TGI (KM20L2 colon): > 100 µM; TGI (LXFL 529 NSCLC): > 100 µM; TGI (M19-MEL melanoma): > 100 µM; TGI (SNB-78 CNS): > 100 µM
CC1(C)N=C(N)N=C(N)N1c1cccc(CSc2ccccc2)c1	> 100	–
Cc1nc2ccccc2n1CCc1nc2ccccc2s1	> 100	–
O=c1[nH]cnc2c1ncn2[C@H]1CO[C@@H](CO)[C@@H]1O	> 100	–
O=C(CSc1nc2ccc(I)cc2c(=O)n1Cc1ccccc1)Nc1ccc(Br)cc1	> 100	–
Cc1cc2ccccc2c[n+]1CC(=O)CC([O-])(C(F)(F)F)C(F)(F)F	> 100	–
CC1CC[C@]2(C(=O)O)CCC3(C)C(=C2[C@H]1C)C=CC1[C@@]2(C)CC[C@H](O)C(C)(C)C2CC[C@]13C (some centres undefined)	98.4	–
CC1=Nn2c(nc3sc4c(c3c2=O)CCCC4)SC1	> 100	–
CC1=C(N2CC2)C(=O)c2nc3n(c2C1=O)CCC3O (centres undefined)	0.872	TGI (DMS 114 small cell lung): 2.68 µM; TGI (DMS 273 small cell lung): 1.68 µM; TGI (HOP-18 NSCLC): > 100 µM; TGI (KM20L2 colon): 5.95 µM; TGI (LXFL 529 NSCLC): 2.44 µM; TGI (M19-MEL melanoma): 3.57 µM; TGI (SNB-78 CNS): 0.131 µM; TGI (XF 498 CNS): 29.8 µM
